SMILES strings stand for the structures.

The conditions of series [1]: rhesus monkey, in vivo.
The conditions of series [2]: 50 mg/kg CAB LA, 200 mg/kg RPV intramuscularly once a month; cited from earlier work.
For a further series, the system named is HIV. The note with it: cited from earlier work.

On to `C[C@H]1CO[C@@H]2Cn3cc(C(=O)NCc4ccc(F)cc4F)c(=O)c(O)c3C(=O)N12` [CAB, cabotegravir], for which the “Time after the last dose over which plasma concentration declined to undetectable levels (remained detected)” value in series [1] was 4-7 months. In series [2], the “Plasma concentration relative to protein-adjusted concentration required for 90% viral inhibition” value is listed as “well above”. Besides, the “Protein-adjusted concentration required for 90% viral inhibition” value in the series on HIV was 0.166 µg/mL.

For `Cc1cc(/C=C/C#N)cc(C)c1Nc1ccnc(Nc2ccc(C#N)cc2)n1` [RPV, rilpivirine], the “Time after the last dose over which plasma concentration declined to undetectable levels (remained detected)” value in series [1] was 4-7 months. For the same compound, the “Plasma concentration relative to protein-adjusted concentration required for 90% viral inhibition” value in series [2] is on record as “well above”.

Values taken from patent publication US12616692B2, “Method of achieving HIV viral remission using long-acting antiretroviral agents” (ViiV Healthcare Company, priority 2020, dated 2026).
